From PubChem BioAssay (NCI)
“And” between values parts separate entries of the source, which are not always exact repeats. Equal values may be shown once.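 In this assay, cells in 96-well plates receive the compound at five concentrations for 48 hours. Endpoints are linearly interpolated between the surrounding concentrations. At the GI50, growth is halved. TGI denotes the concentration required for complete inhibition of growth.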

Key:
Assay in all cases: NCI tumour cell line growth inhibition, 48 h
HCC-2998 colon = test system: HCC-2998 colon
PC-3 prostate = test system: PC-3 prostate
MDA-MB-231 breast = test system: MDA-MB-231 breast
DMS 273 small cell lung = test system: DMS 273 small cell lung
T-47D breast = test system: T-47D breast
UO-31 renal = test system: UO-31 renal
HCT-15 colon = test system: HCT-15 colon
DU-145 prostate = test system: DU-145 prostate
HL-60(TB) leukemia = test system: HL-60(TB) leukemia
P388/ADR leukemia = test system: P388/ADR leukemia
NCI-H522 lung = test system: NCI-H522 lung
HOP-92 NSCLC = test system: HOP-92 NSCLC
786-0 renal = test system: 786-0 renal
NCI-H460 lung = test system: NCI-H460 lung
KM12 colon = test system: KM12 colon
MDA-MB-435 = test system: MDA-MB-435
HOP-18 NSCLC = test system: HOP-18 NSCLC
KM20L2 colon = test system: KM20L2 colon
XF 498 CNS = test system: XF 498 CNS
MDA-N = test system: MDA-N
RXF 393 renal = test system: RXF 393 renal
BT-549 breast = test system: BT-549 breast
SR leukemia = test system: SR leukemia
M14 melanoma = test system: M14 melanoma
M19-MEL melanoma = test system: M19-MEL melanoma
SN12K1 renal = test system: SN12K1 renal
TK-10 renal = test system: TK-10 renal
HS 578T breast = test system: HS 578T breast
P388 leukemia = test system: P388 leukemia
DMS 114 small cell lung = test system: DMS 114 small cell lung
OVCAR-4 ovarian = test system: OVCAR-4 ovarian
SNB-78 CNS = test system: SNB-78 CNS
DLD-1 colon = test system: DLD-1 colon
ACHN renal = test system: ACHN renal
NCI/ADR-RES ovarian = test system: NCI/ADR-RES ovarian

Q: Which TGI (HCC-2998 colon) does the source give for `CCCCCC(O)C1C(=O)OC(C)C(O)/C=C/C=C/C=C/C=C/C=C(\C)C(O)C(O)C(O)CC(O)CC(O)CC(O)CC(O)CC1O` (stereo not given) here?
A: The TGI was 3.26 µM.

Q: What about the TGI (PC-3 prostate) of the same molecule?
A: The TGI was > 100 µM.

Q: What about the TGI (MDA-MB-231 breast) of the same molecule?
A: Its TGI is > 100 µM.

Q: What about the TGI (DMS 273 small cell lung) of the same molecule?
A: The TGI was 2.84 µM.

Q: And the TGI (T-47D breast)?
A: The TGI was > 100 µM.

Q: And the TGI (UO-31 renal)?
A: Its TGI is 3.27 µM.

Q: What about the TGI (HCT-15 colon) of the same molecule?
A: The TGI was 5.93 µM.

Q: What about the TGI (DU-145 prostate) of the same molecule?
A: Its TGI is > 100 µM.

Q: And the TGI (HL-60(TB) leukemia)?
A: Its TGI is > 100 µM.

Q: What about the TGI (P388/ADR leukemia) of the same molecule?
A: The TGI was 3.8 µM.

Q: What about the TGI (NCI-H522 lung) of the same molecule?
A: The TGI was 3.3 µM.

Q: And the TGI (HOP-92 NSCLC)?
A: Its TGI is 3.21 µM.

Q: And the TGI (786-0 renal)?
A: The TGI was > 100 µM.

Q: And the TGI (NCI-H460 lung)?
A: Its TGI is 3.44 µM.

Q: What about the GI50 (KM12 colon) of the same molecule?
A: Its GI50 is 11.8 µM and 1.77 µM.

Q: And the TGI (MDA-MB-435)?
A: Its TGI is > 100 µM.

Q: What about the TGI (HOP-18 NSCLC) of the same molecule?
A: Its TGI is 4.61 µM.

Q: What about the TGI (KM20L2 colon) of the same molecule?
A: The TGI was 5.64 µM.

Q: And the TGI (XF 498 CNS)?
A: Its TGI is 2.84 µM.

Q: And the TGI (MDA-N)?
A: The TGI was > 100 µM.

Q: And the TGI (RXF 393 renal)?
A: Its TGI is 1.89 µM.

Q: And the TGI (BT-549 breast)?
A: Its TGI is > 100 µM.

Q: What about the TGI (SR leukemia) of the same molecule?
A: Its TGI is > 100 µM.

Q: What about the TGI (M14 melanoma) of the same molecule?
A: Its TGI is > 100 µM.

Q: And the TGI (M19-MEL melanoma)?
A: The TGI was 2.59 µM.

Q: And the TGI (SN12K1 renal)?
A: The TGI was 2.97 µM.

Q: And the TGI (TK-10 renal)?
A: The TGI was > 100 µM.

Q: What about the TGI (HS 578T breast) of the same molecule?
A: The TGI was > 100 µM.

Q: And the TGI (P388 leukemia)?
A: Its TGI is 2.42 µM.

Q: What about the TGI (DMS 114 small cell lung) of the same molecule?
A: The TGI was 2.92 µM.

Q: What about the TGI (OVCAR-4 ovarian) of the same molecule?
A: Its TGI is 3.25 µM.

Q: And the TGI (SNB-78 CNS)?
A: Its TGI is 4.69 µM.

Q: And the TGI (DLD-1 colon)?
A: Its TGI is 3.32 µM.

Q: What about the TGI (ACHN renal) of the same molecule?
A: Its TGI is > 100 µM.

Q: And the TGI (NCI/ADR-RES ovarian)?
A: Its TGI is 3.73 µM.
